Data reported in patent US9750698B2, “Controlled release compositions of agents that reduce circulating levels of platelets and methods therefor” (BioVascular, Inc., priority 2008, dated 2017).
Like-named read-outs stand apart in the source and are kept apart here.

Key:
[1] = Repeat-dose dose-escalation study of controlled release anagrelide: pharmacokinetics; assay type: in vivo, human; settings: for half-life / AUC0-inf / AUC / Cmax / Tmax / AUC0-t: human, plasma, oral; for AUC0-inf / AUC / Cmax / AUC0-t: dose-normalized to 0.2 mg; for AUC0-inf: read-out: AUC0-inf; for AUC: read-out: AUC0-τ; for Cmax: read-out: Cmax; for Tmax: median; for AUC0-t: read-out: AUC0-t
Procedure: A placebo-controlled, double-blind repeat-dose, dose-escalation, sequential cohort study was conducted to evaluate the pharmacokinetics and pharmacodynamics of a controlled release composition of anagrelide as described herein in healthy subjects. An objective of the study was to explore the dose-response relationship for effects on platelet counts of a low dose range of a composition of anagrelide as described herein in healthy subjects. Other objectives of the study included determining the time course of effect and recovery of a range of doses of the composition including anagrelide on platelet count, determining the effects of a range of doses of the anagrelide compositions on platelet aggregation (collagen and ADP as agonists), determining the single and repeat dose pharmacokinetics of the anagrelide composition, and exploring the safety and tolerability of the compositions given as single doses and repeatedly for up to 21 days.
Eligible subjects were treated as follows: • Subjects were admitted to the unit on day 1 in the morning after an overnight fast and remain in the unit until 4 hours after morning dosing on day 5. • Subjects received a single dose of controlled release composition including anagrelide (or matching placebo) on day 1 in the morning. • Subjects commenced repeat dosing twice a day with the controlled release anagrelide composition on the morning of day 3 and remained in the unit until 4 hours after morning dose on day 5. • Subjects continued repeat twice a day dosing with the controlled release anagrelide composition as outpatients. Dosing continued until the morning of day 23. • All morning doses were taken after an overnight fast of at least 8 hour. • All evening doses were taken at least 2 hour after food consumption. No food was to be consumed for at least 1 hour after any dose (4 hours for the morning doses on day 1 and day 23). • On day 6-day 21, blood was taken pre-dosing of the controlled release anagrelide composition for full blood count (FBC) and platelet count (every day), trough PK (day 7, day 10, day 13, day 16 and day 19) and clinical chemistry (day 13). • Subjects were readmitted to the unit on the morning of day 22 and remained there until day 25 so that the PK of the final dose of the controlled release composition containing anagrelide on day 23 could be followed for 48 hours. • Subjects returned to the clinic daily from day 26 to day 31 for FBC and platelet counts. • Subjects returned for a follow up visit 14-16 days after the last dose of the controlled release composition containing anagrelide. Study Population:
A controlled release composition of anagrelide as described above in Table 4 of Example 1 (composition 2 fast release with seal coat) was used in unit doses of 100 μg and 300 μg, administered orally.
In this protocol, 4 cohorts of 200 μg, 300 μg, 400 μg and 600 μg doses of the controlled release composition including anagrelide administered twice daily were studied.
Platelet count, collagen-induced platelet aggregation, ADP induced platelet aggregation, template bleeding time, AUC0-t, AUC0-∞, Cmax, Cmin, t1/2, λZ and tmax were determined.
The starting dose of 200 μg (as a single dose on day 1 and then twice a day for 21 days) was chosen as a dose unlikely to cause any clinically significant reduction in platelet counts in healthy subjects. This starting dose was chosen because identification of the lowest dose of the controlled release composition containing anagrelide producing any effect on platelet counts was of interest. In each subsequent cohort the dose was increased by […] twice a day with the objective of identifying the dose range that lowers platelet counts by 30-50%. With daily monitoring of platelet counts, this escalation was determined to allow identification of the effective dose range of the controlled release composition of anagrelide without placing the subjects at significant clinical risk.

cultured megakaryocytes [2] = experiment: In vitro studies of cultured megakaryocytes (TPO inhibition effects, megakaryocytopoiesis); assay type: cell-based; settings: at 310.55 g/mol
[3] = 38 volunteers, single 1 mg dose of immediate release anagrelide (Agrylin); cited from earlier work
[4] = patients with ET or other myeloproliferative diseases; cited from earlier work
cAMP PDE = settings: sonicated human platelets; read-out: IC50 for inhibition of cAMP PDE activity; cited from earlier work
cGMP PDE = settings: sonicated human platelets; read-out: IC50 for inhibition of cGMP PDE activity; cited from earlier work
cultured megakaryocytes [5] = settings: cultured megakaryocytes; cited from earlier work
[6] = cited from earlier work
CYP1A2 = CYP1A2 (Homo sapiens, UniProt P05177); settings: cited from earlier work
CYP1A2, sequence (P05177 whole entry): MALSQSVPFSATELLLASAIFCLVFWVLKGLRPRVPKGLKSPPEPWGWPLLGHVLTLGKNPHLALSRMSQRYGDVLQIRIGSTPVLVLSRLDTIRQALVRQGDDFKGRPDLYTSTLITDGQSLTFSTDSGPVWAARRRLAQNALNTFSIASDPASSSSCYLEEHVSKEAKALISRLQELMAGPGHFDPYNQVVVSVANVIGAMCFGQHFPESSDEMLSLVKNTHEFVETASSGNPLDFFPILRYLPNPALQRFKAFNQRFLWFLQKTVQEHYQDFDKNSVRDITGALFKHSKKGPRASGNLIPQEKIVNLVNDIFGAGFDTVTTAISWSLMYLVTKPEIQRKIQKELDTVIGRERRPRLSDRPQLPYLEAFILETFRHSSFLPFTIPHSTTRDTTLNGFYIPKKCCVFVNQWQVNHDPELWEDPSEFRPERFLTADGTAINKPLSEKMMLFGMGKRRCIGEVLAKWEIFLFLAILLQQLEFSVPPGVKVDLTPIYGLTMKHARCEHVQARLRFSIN

[7] = cited from earlier work; remark: listed apart in the source
circulating platelets = settings: patients with essential thrombocythemia, immediate release form 3 mg/day, after approximately 10 days; cited from earlier work
[8] = 0.2 mg, cohort 1 (0.2 mg), day 1
[9] = 0.2 mg, cohort 1 (0.2 mg), day 23
[10] = 0.3 mg, cohort 4 (0.3 mg), day 1
[11] = 0.3 mg, cohort 4 (0.3 mg), day 23
[12] = 0.4 mg, cohort 2 (0.4 mg), day 1
[13] = 0.4 mg, cohort 2 (0.4 mg), day 23
[14] = 0.6 mg, cohort 3 (0.6 mg), day 1
[15] = 14C labelled anagrelide in humans

With `O=C1CN2Cc3c(ccc(Cl)c3Cl)N=C2N1` [anagrelide, 6,7-dichloro-1,5-dihydroimidazo-[2,1-b]quinazolin-2(3H)-one] the Kel ([1]; cohort 1 (0.2 mg), day 1) was 0.1908 h⁻¹, the Kel ([1]; cohort 1 (0.2 mg), day 23) was 0.0871 h⁻¹ and the Kel ([1]; cohort 2 (0.4 mg), day 1) was 0.0426 h⁻¹. For the same molecule, the Kel ([1]; cohort 2 (0.4 mg), day 23) was 0.0567 h⁻¹, the Kel ([1]; cohort 3 (0.6 mg), day 1) was 0.0490 h⁻¹ and the Kel ([1]; cohort 4 (0.3 mg), day 1) was 0.1685 h⁻¹. For the same molecule, the Kel ([1]; cohort 4 (0.3 mg), day 23) was 0.0321 h⁻¹, the half-life [1, 8] was 22.9 h and the half-life [1, 9] was 34.3 h. For the same molecule, the AUC0-inf [1, 8] was 2.45 ng·h/mL, the AUC [1, 8] was 1.75 ng·h/mL and the Cmax [1, 8] was 0.334 ng/mL. The AUC0-inf [1, 9] was 3.25 ng·h/mL, the AUC [1, 9] was 2 ng·h/mL and the Cmax [1, 9] was 0.354 ng/mL. The Tmax [1, 8] was 4 h, the Tmax [1, 9] was 3 h and the half-life [1, 10] was 14.3 h. For the same molecule, the half-life [1, 11] was 21.6 h, the AUC0-inf [1, 10] was 2.24 ng·h/mL and the AUC [1, 10] was 1.63 ng·h/mL. For the same molecule, the Cmax [1, 10] was 0.284 ng/mL, the AUC0-inf [1, 11] was 2.1 ng·h/mL and the AUC [1, 11] was 1.87 ng·h/mL. It also gave a Cmax [1, 11] of 0.224 ng/mL, a Tmax [1, 10] of 3.61 h and a Tmax [1, 11] of 2 h. It also gave a half-life [1, 12] of 56.1 h, a half-life [1, 13] of 15.1 h and an AUC0-inf [1, 12] of 3.48 ng·h/mL. It also gave an AUC [1, 12] of 1.48 ng·h/mL, a Cmax [1, 12] of 0.234 ng/mL and an AUC0-inf [1, 13] of 3.28 ng·h/mL. For the same molecule, the AUC [1, 13] was 2.26 ng·h/mL, the Cmax [1, 13] was 0.331 ng/mL and the Tmax [1, 12] was 3.51 h. It also gave a Tmax [1, 13] of 3.02 h, a half-life [1, 14] of 19.5 h and an AUC0-inf [1, 14] of 2.74 ng·h/mL. The AUC [1, 14] was 1.96 ng·h/mL, the Cmax [1, 14] was 0.304 ng/mL and the Tmax [1, 14] was 4 h. The AUC0-t ([1]; cohort 1 (0.2 mg), day 1) was 1.72 ng·h/mL, the AUC0-t ([1]; cohort 2 (0.4 mg), day 1) was 1.66 ng·h/mL and the AUC0-t ([1]; cohort 3 (0.6 mg), day 1) was 2.26 ng·h/mL. For the same molecule, the AUC0-t ([1]; cohort 4 (0.3 mg), day 1) was 1.82 ng·h/mL, the “Concentrations at which TPO inhibition effects are seen (molar equivalent)” value (cultured megakaryocytes [2]) was 0.032 to 0.16 µM and the “AUC0-inf ± RSD (%)” value [3] was 11.1 ± 37.6 ng·h/mL. For the same molecule, the “Cmax ± RSD (%)” value [3] was 4.99 ± 74.4 ng/mL, the “Tmax ± RSD (%)” value [3] was 1.3 ± 53.8 h and the Observed half-life [4] was “about 1.7 h”. For the same molecule, the “Share of all drug-related products in the plasma” value [4] was “less than 20%”, the IC50 (cAMP PDE) was 0.054 µM and the IC50 (cGMP PDE) was 34 µM. The “Concentrations at which TPO inhibition effects are seen” value (cultured megakaryocytes [5]) was 0.01 to 5 µg/mL, the “Eliminated via the kidneys” value [6, 15] was over 70% and the “Excreted in the feces” value [6, 15] was “approximately 10%”. For the same molecule, the Terminal half-life ([6]; commercially available instant release formulation) was 1.7 h, the “Drug-drug interactions with hydroxycarbamide or aspirin” value ([6]; in vivo) was “No drug-drug interactions were identified” and the “Absorption in the gastrointestinal tract” value ([6]; oral, marketed immediate release formulation) was “about 70%”. For the same molecule, the “Level of CYP1A2 inhibition relative to therapeutic exposure” value (CYP1A2) was “about 900 fold”, the “Solubility in diethyl ether or n-heptane” value [7] was “insoluble” and the “Solubility in dimethylsulfoxide and N,N-dimethylformamide” value [7] was “sparingly soluble”. The Solubility in water [7] was “very slightly soluble” and the “Decrease in the number of circulating platelets” value (circulating platelets) was 30-50%.
